Literature values, collected in patent US5089515A, “Lipid-peroxide formation inhibiting composition and novel compounds useful therefor” (priority 1986, dated 1992).

What was measured:
central nervous system = conditions: IYAKUHIN KENKYU, 16, 1 (1985); cited from earlier work
[1] = system: lipid peroxidation due to active oxygen species; conditions: prior art; cited from earlier work
[2] = cited from earlier work

Row | SMILES | depressing the central nervous system (central nervous system) | inhibition of lipid peroxidation [1] | solubility in water [2]
1 | CCN(CC)Cc1nccn1-c1ccc([N+](=O)[O-])cc1C(=O)c1ccccc1Cl [nizofenone] | defective in depressing the central nervous system | known to inhibit lipid peroxidation due to active oxygen species | 
2 | COC1=C(OC)C(=O)C(CCCCCCCCCCO)=C(C)C1=O [Idebenon] |  | known to inhibit lipid peroxidation due to active oxygen species | difficult to dissolve in water
